In EP0908457B1, “3-(1,2-benzisothiazol- and isoxazol-5-Y1)-2,4(1H,3H)-pyrimidinedione or thione and 3-(1,2-benzisothiazol- and isoxazol-5-y1)-4(3H)-pyrimidinone or thione herbicidal agents” (BASF AKTIENGESELLSCHAFT, priority 1997, dated 1999):

Key:
Cyperus iria = experiment: Preemergence weed control under flooded paddy conditions, CYPIR (Rice Flatsedge); assay type: in vivo; conditions: flooded paddy; as to herbicidal effect rating, CYPIR: meaning of each grade not given here
[1] = tested on: Oryza sativa, (L.) Tebonnet; experiment: Rice tolerance to post-transplant applications under flooded paddy conditions (Example 187), ORYSAT (Rice, Tebonnet); conditions: for herbicidal effect rating ORYSAT: rated 3-4 weeks after treatment; for ORYSAT herbicidal effect rating / herbicidal effect rating, ORYSAT (rice tolerance): rated three to four weeks after treatment; as to herbicidal effect rating ORYSAT: meaning of each grade not given here
[2] = tested on: Cyperus serotinus, Rottb.; experiment: Preemergence weed control under flooded paddy conditions, CYPSE (Flatsedge); assay type: in vivo; as to herbicidal effect rating, CYPSE: meaning of each grade not given here
[3] = tested on: Echinochloa oryzoides (Ard.) Fritsch.; experiment: Preemergence weed control under flooded paddy conditions, ECHORC (Watergrass (Calif.)); assay type: in vivo; conditions: flooded paddy; as to herbicidal effect rating, ECHORC: meaning of each grade not given here
[4] = tested on: Monochoria vaginalis, Presl.; experiment: Preemergence weed control under flooded paddy conditions, MOOVA (Monochoria); assay type: in vivo; conditions: flooded paddy; as to herbicidal effect rating, MOOVA: meaning of each grade not given here
Sagittaria pygmaea, L. = experiment: Preemergence weed control under flooded paddy conditions, SAGPY (Arrowhead (Pygmaea)); assay type: in vivo; conditions: flooded paddy; as to herbicidal effect rating, SAGPY: meaning of each grade not given here
[5] = Rate 0.0320 kg/ha, preemergence, rated 3-4 weeks after treatment
[6] = Rate 0.0620 kg/ha, preemergence, rated 3-4 weeks after treatment
[7] = Rate 0.1250 kg/ha, preemergence, rated 3-4 weeks after treatment
[8] = Rate 0.2500 kg/ha, preemergence, rated 3-4 weeks after treatment
[9] = Rate 0.0620 kg/ha, preemergence, rated three to four weeks after treatment
[10] = Rate 0.1250 kg/ha, preemergence, rated three to four weeks after treatment
[11] = Rate 0.2500 kg/ha, preemergence, rated three to four weeks after treatment
[12] = Rate 0.5000 kg/ha, preemergence, rated three to four weeks after treatment
[13] = Rate 0.5000 kg/ha, preemergence, rated 3-4 weeks after treatment
[14] = 0.0313 kg/ha, preemergence weeds, rated three to four weeks after treatment
[15] = 0.0625 kg/ha, preemergence weeds, rated three to four weeks after treatment
[16] = 0.1250 kg/ha, preemergence weeds, rated three to four weeks after treatment
[17] = 0.2500 kg/ha, preemergence weeds, rated three to four weeks after treatment

SMILES: Cc1ccc(OCC(=O)OCCC2OCC(C)(C)CO2)c(-c2nsc3ccc(-n4c(=O)cc(C(F)(F)F)n(C)c4=O)cc23)c1 [Example 533, Acetic acid, {{2-{5-[3,6-dihydro-3-methyl-2,6-dioxo-4-(trifluoromethyl)-1(2H)-pyrimidinyl]-1,2-benzisothiazol-3-yl}-p-tolyl}oxy}-, 2-(5,5-dimethyl-m-dioxan-2-yl)ethyl ester]
- herbicidal effect rating, CYPIR (Cyperus iria; [5]): 2.0
- herbicidal effect rating, CYPIR (Cyperus iria; [6]): 3.0
- herbicidal effect rating, CYPIR (Cyperus iria; [7]): 4.0
- herbicidal effect rating, CYPIR (Cyperus iria; [8]): 9.0
- herbicidal effect rating ORYSAT ([1]; Rate 0.0320 kg/ha): 3.0
- herbicidal effect rating ORYSAT ([1]; Rate 0.0620 kg/ha): 4.5
- herbicidal effect rating ORYSAT ([1]; Rate 0.1250 kg/ha): 5.0
- herbicidal effect rating ORYSAT ([1]; Rate 0.2500 kg/ha): 8.0
- herbicidal effect rating, CYPSE [2, 5]: 0.0
- herbicidal effect rating, CYPSE [2, 6]: 0.0
- herbicidal effect rating, CYPSE [2, 7]: 3.0
- herbicidal effect rating, CYPSE [2, 8]: 9.0
- herbicidal effect rating, ECHORC [3, 5]: 7.5
- herbicidal effect rating, ECHORC [3, 6]: 9.0
- herbicidal effect rating, ECHORC [3, 7]: 9.0
- herbicidal effect rating, ECHORC [3, 8]: 9.0
- herbicidal effect rating, MOOVA [4, 5]: 9.0
- herbicidal effect rating, MOOVA [4, 6]: 9.0
- herbicidal effect rating, MOOVA [4, 7]: 9.0
- herbicidal effect rating, MOOVA [4, 8]: 9.0
- herbicidal effect rating, SAGPY (Sagittaria pygmaea, L.; [5]): 0.0
- herbicidal effect rating, SAGPY (Sagittaria pygmaea, L.; [6]): 0.0
- herbicidal effect rating, SAGPY (Sagittaria pygmaea, L.; [7]): 0.0
- herbicidal effect rating, SAGPY (Sagittaria pygmaea, L.; [8]): 4.0

SMILES: Cc1nsc2ccc(-n3c(=O)c(Cl)c(C(F)(F)F)n(C)c3=O)cc12 [Example 271, 2,4(1H,3H)-Pyrimidinedione, 5-chloro-1-methyl-3-(3-methyl-1,2-benzisothiazol-5-yl)-6-(trifluoromethyl)-]
- CYPIR herbicidal effect rating (Cyperus iria; [9]): 0.0
- CYPIR herbicidal effect rating (Cyperus iria; [10]): 0.0
- CYPIR herbicidal effect rating (Cyperus iria; [11]): 0.0
- CYPIR herbicidal effect rating (Cyperus iria; [12]): 0.0
- ORYSAT herbicidal effect rating ([1]; Rate 0.0620 kg/ha): 1.0
- ORYSAT herbicidal effect rating ([1]; Rate 0.1250 kg/ha): 2.0
- ORYSAT herbicidal effect rating ([1]; Rate 0.2500 kg/ha): 3.0
- ORYSAT herbicidal effect rating ([1]; Rate 0.5000 kg/ha): 0.0
- CYPSE herbicidal effect rating [2, 9]: 0.0
- CYPSE herbicidal effect rating [2, 10]: 0.0
- CYPSE herbicidal effect rating [2, 11]: 0.0
- CYPSE herbicidal effect rating [2, 12]: 0.0
- ECHORC herbicidal effect rating [3, 9]: 0.0
- ECHORC herbicidal effect rating [3, 10]: 0.0
- ECHORC herbicidal effect rating [3, 11]: 0.0
- ECHORC herbicidal effect rating [3, 12]: 0.0
- MOOVA herbicidal effect rating [4, 9]: 0.0
- MOOVA herbicidal effect rating [4, 10]: 4.0
- MOOVA herbicidal effect rating [4, 11]: 9.0
- MOOVA herbicidal effect rating [4, 12]: 9.0
- SAGPY herbicidal effect rating (Sagittaria pygmaea, L.; [9]): 0.0
- SAGPY herbicidal effect rating (Sagittaria pygmaea, L.; [10]): 0.0
- SAGPY herbicidal effect rating (Sagittaria pygmaea, L.; [11]): 0.0
- SAGPY herbicidal effect rating (Sagittaria pygmaea, L.; [12]): 0.0

SMILES: COCCOC(=O)C(C)(C)Oc1ccc(C)cc1-c1nsc2ccc(-n3c(=O)cc(C(F)(F)F)n(C)c3=O)cc12 [Example 546, Propionic acid, 2-{{2-{5-[3,6-dihydro-3-methyl-2,6-dioxo-4-(trifluoromethyl)-1(2H)-pyrimidinyl]-1,2-benzisothiazol-3-yl}-p-tolyl}oxy}-2-methyl-, 2-methoxyethyl ester]
- herbicidal effect rating, CYPIR (Cyperus iria; [5]): 3.0
- herbicidal effect rating, CYPIR (Cyperus iria; [6]): 4.0
- herbicidal effect rating, CYPIR (Cyperus iria; [7]): 6.0
- herbicidal effect rating, CYPIR (Cyperus iria; [8]): 9.0
- herbicidal effect rating, CYPIR (Cyperus iria; [13]): 2.0
- herbicidal effect rating ORYSAT ([1]; Rate 0.0320 kg/ha): 2.0
- herbicidal effect rating ORYSAT ([1]; Rate 0.0620 kg/ha): 3.0
- herbicidal effect rating ORYSAT ([1]; Rate 0.1250 kg/ha): 4.0
- herbicidal effect rating ORYSAT ([1]; Rate 0.2500 kg/ha): 7.0
- herbicidal effect rating ORYSAT ([1]; Rate 0.5000 kg/ha): 6.0
- herbicidal effect rating, CYPSE [2, 5]: 0.0
- herbicidal effect rating, CYPSE [2, 6]: 0.0
- herbicidal effect rating, CYPSE [2, 7]: 9.0
- herbicidal effect rating, CYPSE [2, 8]: 9.0
- herbicidal effect rating, CYPSE [2, 13]: 0.0
- herbicidal effect rating, ECHORC [3, 5]: 4.1
- herbicidal effect rating, ECHORC [3, 6]: 4.3
- herbicidal effect rating, ECHORC [3, 7]: 4.6
- herbicidal effect rating, ECHORC [3, 8]: 9.0
- herbicidal effect rating, ECHORC [3, 13]: 9.0
- herbicidal effect rating, MOOVA [4, 5]: 6.0
- herbicidal effect rating, MOOVA [4, 6]: 7.0
- herbicidal effect rating, MOOVA [4, 7]: 7.0
- herbicidal effect rating, MOOVA [4, 8]: 9.0
- herbicidal effect rating, MOOVA [4, 13]: 9.0
- herbicidal effect rating, SAGPY (Sagittaria pygmaea, L.; [5]): 0.0
- herbicidal effect rating, SAGPY (Sagittaria pygmaea, L.; [6]): 0.0
- herbicidal effect rating, SAGPY (Sagittaria pygmaea, L.; [7]): 4.0
- herbicidal effect rating, SAGPY (Sagittaria pygmaea, L.; [8]): 9.0
- herbicidal effect rating, SAGPY (Sagittaria pygmaea, L.; [13]): 9.0

SMILES: Cn1c(C(F)(F)F)cc(=O)n(-c2ccc3snc(C(Cl)Cl)c3c2)c1=O [Example 114, 3-[3-(Dichloromethyl)-1,2-benzisothiazol-5-yl]-1-methyl-6-(trifluoromethyl)-2,4(1H,3H)-pyrimidinedione]
- herbicidal effect rating, CYPIR (Cyperus iria; [14]): 9.0
- herbicidal effect rating, CYPIR (Cyperus iria; [15]): 9.0
- herbicidal effect rating, CYPIR (Cyperus iria; [16]): 9.0
- herbicidal effect rating, CYPIR (Cyperus iria; [17]): 9.0
- herbicidal effect rating, ORYSAT (rice tolerance) ([1]; 0.0313 kg/ha): 4.0
- herbicidal effect rating, ORYSAT (rice tolerance) ([1]; 0.0625 kg/ha): 6.0
- herbicidal effect rating, ORYSAT (rice tolerance) ([1]; 0.1250 kg/ha): 7.0
- herbicidal effect rating, ORYSAT (rice tolerance) ([1]; 0.2500 kg/ha): 7.0
- herbicidal effect rating, CYPSE [2, 14]: 0.0
- herbicidal effect rating, CYPSE [2, 15]: 0.0
- herbicidal effect rating, CYPSE [2, 16]: 2.0
- herbicidal effect rating, CYPSE [2, 17]: 6.0
- herbicidal effect rating, ECHORC [3, 14]: 0.0
- herbicidal effect rating, ECHORC [3, 15]: 0.0
- herbicidal effect rating, ECHORC [3, 16]: 4.0
- herbicidal effect rating, ECHORC [3, 17]: 6.0
- herbicidal effect rating, MOOVA [4, 14]: 9.0
- herbicidal effect rating, MOOVA [4, 15]: 9.0
- herbicidal effect rating, MOOVA [4, 16]: 9.0
- herbicidal effect rating, MOOVA [4, 17]: 8.0
- herbicidal effect rating, SAGPY (Sagittaria pygmaea, L.; [14]): 0.0
- herbicidal effect rating, SAGPY (Sagittaria pygmaea, L.; [15]): 2.0
- herbicidal effect rating, SAGPY (Sagittaria pygmaea, L.; [16]): 6.0
- herbicidal effect rating, SAGPY (Sagittaria pygmaea, L.; [17]): 6.0
